From patent US10407422B2, “Triazolopyridine inhibitors of myeloperoxidase” (priority 2015, dated 2019) come the findings set out here.

Common to all, as to format: biochemical
Test [1] addresses eosinophil peroxidase (EPX) (Homo sapiens (Human), UniProt P11678). Kind of test: EPX bromination assay. The method, then: [formula] where A=minimal Y value (activity level of inhibited sample), B=maximal Y value (activity level of uninhibited sample), C=Log IC50, D=Hill Slope, x=concentration of inhibitor. EPX Bromination Assay
EPX bromination activity was measured in 100 mM KPi (pH 7.4) by monitoring the H2O2 catalyzed formation of 3-bromo tyrosine from tyrosine and potassium bromide. A 50 μl mixture of 0.6 μM EPX (Lee Biosolutions Cat. #342-60) was added to 100 nL inhibitor in 100% DMSO in a 384 well REMP plate. Enzyme and compound were preincubated for ten minutes at room temperature.
After the ten minute preincubation of enzyme and inhibitor, 25 μL of a mixture containing 400 μM tyrosine and 1200 μM potassium bromide was added to the plate containing enzyme and inhibitor, followed by the addition of 25 μl of 20 μM H2O2. The reaction was allowed to proceed for 15 minutes, at which time it was quenched with 10 μL of 20% TCA. The final concentrations of all components were 0.3 μM EPX, 100 μM tyrosine, […], 5 μM H2O2, 0.1% DMSO, 2.0% TCA.
IC50 values were determined by determining the peak areas of 3-bromotyrosine present at the end of the 15 minute reaction and fitting the data to:
[formula] where A=minimal Y value (activity level of inhibited sample), B=maximal Y value (activity level of uninhibited sample), C=Log IC50, D=Hill Slope, x=concentration of inhibitor.
Reversed-phase analysis was performed on a Waters Acquity Ultra Performance LC system using an Acquity UPLC BEH C18 […], 2.1×50 mm analytical column. The column was maintained at 60° C. Samples were eluted using a gradient of 0%-100% B over 2.5 minutes, followed by equilibration with 100% A for 1 minute where A consisted of 0.1% TFA and B consisted of 90% MeOH/0.1% TFA at a flow rate of 0.6 mL/min. The retention time of 3-bromo tyrosine was 1.22 min (Method A).

Test [2] deals with T1, myeloperoxidase (MPO) (Homo sapiens (Human), UniProt P05164). Kind of test: MPO peroxidation assay (Amplex Red assay). The following applies: potency range class. The method in brief:
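Human MPO at 200 pM with 40 nM H2O2 preincubated 10 min at room temperature with inhibitor in 100 mM KPi pH 7.4. Reaction started with Amplex Red mixture (200 μM Amplex Red, 10 mM H2O2); resorufin fluorescence (Ex 535, Em 590 nm) read kinetically for 15 min. IC50 fitted from slopes over 180-540 s.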

Test [3] concerns the target T1, myeloperoxidase (MPO). Kind of test: MPO chlorination assay (APF assay). The following applies: potency range class. Summed up: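 Human MPO (200 pM) preincubated 10 min at room temperature with inhibitor and 120 mM NaCl in 100 mM KPi pH 7.4. Reaction started with APF plus 10 μM H2O2, and hypochlorite-generated fluorescein read kinetically (ex 485/em 535 nm) for 3 min. IC50 from linear-phase slopes fitted to a four-parameter equation.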

T1 sequence (P05164 49-745): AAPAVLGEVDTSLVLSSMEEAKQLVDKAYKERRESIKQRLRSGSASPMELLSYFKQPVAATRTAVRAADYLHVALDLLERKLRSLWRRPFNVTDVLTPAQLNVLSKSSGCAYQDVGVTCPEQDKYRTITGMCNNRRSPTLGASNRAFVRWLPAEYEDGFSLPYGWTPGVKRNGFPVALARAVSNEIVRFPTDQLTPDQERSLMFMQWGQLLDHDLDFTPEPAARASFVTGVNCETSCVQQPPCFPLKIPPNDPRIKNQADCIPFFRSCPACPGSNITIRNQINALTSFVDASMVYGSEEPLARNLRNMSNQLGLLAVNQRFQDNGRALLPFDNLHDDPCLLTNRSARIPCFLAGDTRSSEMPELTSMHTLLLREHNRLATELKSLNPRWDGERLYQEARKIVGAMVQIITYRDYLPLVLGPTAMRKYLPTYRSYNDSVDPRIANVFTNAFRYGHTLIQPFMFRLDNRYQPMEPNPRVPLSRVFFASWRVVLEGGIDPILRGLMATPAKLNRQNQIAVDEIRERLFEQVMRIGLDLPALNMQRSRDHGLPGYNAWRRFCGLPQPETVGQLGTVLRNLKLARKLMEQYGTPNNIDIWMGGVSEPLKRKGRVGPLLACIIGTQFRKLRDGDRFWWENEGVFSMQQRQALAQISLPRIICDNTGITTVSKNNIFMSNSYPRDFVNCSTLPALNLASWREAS
eosinophil peroxidase (EPX), sequence (P11678 140-715): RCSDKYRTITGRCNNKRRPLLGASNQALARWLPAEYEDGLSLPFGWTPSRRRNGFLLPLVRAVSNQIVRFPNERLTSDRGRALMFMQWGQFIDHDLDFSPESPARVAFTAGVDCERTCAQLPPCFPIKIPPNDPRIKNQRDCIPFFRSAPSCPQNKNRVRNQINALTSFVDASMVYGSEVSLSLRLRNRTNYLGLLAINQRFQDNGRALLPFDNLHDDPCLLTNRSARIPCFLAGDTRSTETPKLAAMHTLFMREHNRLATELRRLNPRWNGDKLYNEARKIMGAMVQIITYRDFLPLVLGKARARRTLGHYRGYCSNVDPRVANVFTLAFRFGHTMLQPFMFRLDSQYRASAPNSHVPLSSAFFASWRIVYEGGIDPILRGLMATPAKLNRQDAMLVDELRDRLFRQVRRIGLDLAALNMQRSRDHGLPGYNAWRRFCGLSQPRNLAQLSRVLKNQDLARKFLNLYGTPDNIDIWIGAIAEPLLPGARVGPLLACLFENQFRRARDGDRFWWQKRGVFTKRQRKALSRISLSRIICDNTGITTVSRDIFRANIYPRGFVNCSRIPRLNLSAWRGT

One may read the IC50 as the midpoint of a concentration-inhibition curve. Read a high IC50 as weaker potency. For `Nc1cc(Cc2cnn(C3CCC3)c2)c2nn[nH]c2n1` [Example 53, 7-((1-Cyclobutyl-1H-pyrazol-4-yl)methyl)-3H-[1,2,3]triazolo[4,5-b]pyridin-5-amine], the concentration for half-maximal inhibition (IC50) in test [1] is 32 nM; on myeloperoxidase (MPO) [2] it was 1 to 100 nM.
`Nc1cc(Cc2cnn(Cc3ccccc3Cc3ccccc3)c2)c2nn[nH]c2n1` [Example 265, 7-({1-[(2-Benzylphenyl)methyl]-1H-pyrazol-4-yl}methyl)-3H-[1,2,3]triazolo[4,5-b]pyridin-5-amine]: the IC50 on myeloperoxidase (MPO) [3] and against myeloperoxidase (MPO) [2] was 1 to 100 nM throughout.
As to `Nc1cc(Cc2cnn(Cc3cccc4c3Cc3ccccc3-4)c2)c2nn[nH]c2n1` [Example 266, 7-{[1-(9H-Fluoren-1-ylmethyl)-1H-pyrazol-4-yl]methyl}-3H-[1,2,3]triazolo[4,5-b]pyridin-5-amine], the IC50 against myeloperoxidase (MPO) [3] was 101 to 999 nM; on myeloperoxidase (MPO) [2], 1 to 100 nM.
On to `Nc1cc(Cc2cnn(Cc3ccc4c(c3)CCC[C@@H]4N)c2)c2nn[nH]c2n1` [Example 267, 7-[(1-{[(5S)-5-Amino-5,6,7,8-tetrahydronaphthalen-2-yl]methyl}-1H-pyrazol-4-yl)methyl]-3H-[1,2,3]triazolo[4,5-b]pyridin-5-amine], for which the IC50 against myeloperoxidase (MPO) [3] and against myeloperoxidase (MPO) [2] was 1 to 100 nM throughout.
As to `Nc1cc(Cc2cnn(Cc3ccc4c(c3)CC[C@H]4N)c2)c2nn[nH]c2n1` [Example 268, 7-[(1-{[(1R)-1-Amino-2,3-dihydro-1H-inden-5-yl]methyl}-1H-pyrazol-4-yl)methyl]-3H-[1,2,3]triazolo[4,5-b]pyridin-5-amine], the IC50 at myeloperoxidase (MPO) [3] and on myeloperoxidase (MPO) [2] was 1 to 100 nM in each case.
For `Nc1cc(Cc2cnn(Cc3ccc4c(c3)CCC[C@H]4N)c2)c2nn[nH]c2n1` [Example 269, 7-[(1-{[(5R)-5-Amino-5,6,7,8-tetrahydronaphthalen-2-yl]methyl}-1H-pyrazol-4-yl)methyl]-3H-[1,2,3]triazolo[4,5-b]pyridin-5-amine], the IC50 against myeloperoxidase (MPO) [3] and on myeloperoxidase (MPO) [2] was 1 to 100 nM throughout.
Regarding `Nc1cc(Cc2cnn(Cc3ccc4c(c3)CC[C@@H]4N)c2)c2nn[nH]c2n1` [Example 270, 7-[(1-{[(1S)-1-Amino-2,3-dihydro-1H-inden-5-yl]methyl}-1H-pyrazol-4-yl)methyl]-3H-[1,2,3]triazolo[4,5-b]pyridin-5-amine], the 50% inhibitory concentration (IC50) on myeloperoxidase (MPO) [3] and against myeloperoxidase (MPO) [2] was 101 to 999 nM in each case.
As for `N#Cc1ccc(Cn2cc(Cc3cc(N)nc4[nH]nnc34)cn2)cc1` [Example 271, 4-{[4-({5-Amino-3H-[1,2,3]triazolo[4,5-b]pyridin-7-yl}methyl)-1H-pyrazol-1-yl]methyl}benzonitrile], the IC50 at myeloperoxidase (MPO) [3] lay in the range of 101 to 999 nM; at myeloperoxidase (MPO) [2], 1 to 100 nM.
For `N#Cc1ccc(Cn2cc(Cc3cc(N)nc4[nH]nnc34)cn2)cc1F` [Example 272, 4-{[4-({5-Amino-3H-[1,2,3]triazolo[4,5-b]pyridin-7-yl}methyl)-1H-pyrazol-1-yl]methyl}-2-fluorobenzonitrile], in that order: 101 to 999 nM and 1 to 100 nM.
`Nc1cc(Cc2cnn(CCCC3CCNCC3)c2)c2nn[nH]c2n1` [Example 273, 7-({1-[3-(Piperidin-4-yl)propyl]-1H-pyrazol-4-yl}methyl)-3H-[1,2,3]triazolo[4,5-b]pyridin-5-amine]: the values for the IC50 on myeloperoxidase (MPO) [3] and on myeloperoxidase (MPO) [2] were 101 to 999 nM and 1 to 100 nM, respectively.
With `Nc1cc(Cc2cnn(CC3CC4(CCNCC4)C3)c2)c2nn[nH]c2n1` [Example 274, 7-[(1-{7-Azaspiro[3.5]nonan-2-ylmethyl}-1H-pyrazol-4-yl)methyl]-3H-[1,2,3]triazolo[4,5-b]pyridin-5-amine], the IC50 fell in the range of 101 to 999 nM against myeloperoxidase (MPO) [3] and 1 to 100 nM on myeloperoxidase (MPO) [2].
For `N#Cc1cc(Br)cc(Cn2cc(Cc3cc(N)nc4[nH]nnc34)cn2)c1` [Example 275, 3-{[4-({5-Amino-3H-[1,2,3]triazolo[4,5-b]pyridin-7-yl}methyl)-1H-pyrazol-1-yl]methyl}-5-bromobenzonitrile], in that order: 101 to 999 nM and 1 to 100 nM.
Turning to `Nc1cc(Cc2cnn(Cc3cc(Cl)cc(-c4ccccc4)c3)c2)c2nn[nH]c2n1` [Example 276, 7-({1-[(3-Chloro-5-phenylphenyl)methyl]-1H-pyrazol-4-yl}methyl)-3H-[1,2,3]triazolo[4,5-b]pyridin-5-amine], the IC50 against myeloperoxidase (MPO) [3] and on myeloperoxidase (MPO) [2] was 101 to 999 nM in each case.
Turning to `Nc1cc(Cc2cnn(Cc3ccc(F)c(Br)c3)c2)c2nn[nH]c2n1` [Example 277, 7-({1-[(3-Bromo-4-fluorophenyl)methyl]-1H-pyrazol-4-yl}methyl)-3H-[1,2,3]triazolo[4,5-b]pyridin-5-amine], the IC50 at myeloperoxidase (MPO) [3] and on myeloperoxidase (MPO) [2] was 1 to 100 nM in each case.
Consider `Nc1cc(Cc2cnn(Cc3cccc(-c4c[nH]cn4)c3)c2)c2nn[nH]c2n1` [Example 278, 7-[(1-{[3-(1H-Imidazol-4-yl)phenyl]methyl}-1H-pyrazol-4-yl)methyl]-3H-[1,2,3]triazolo[4,5-b]pyridin-5-amine], for which the IC50 on myeloperoxidase (MPO) [3] is 101 to 999 nM; against myeloperoxidase (MPO) [2] it was 1 to 100 nM.
For `Cc1[nH]c(-c2ccccc2)nc1-c1cccc(Cn2cc(Cc3cc(N)nc4[nH]nnc34)cn2)c1` [Example 279, 7-[(1-{[3-(5-Methyl-2-phenyl-1H-imidazol-4-yl)phenyl]methyl}-1H-pyrazol-4-yl)methyl]-3H-[1,2,3]triazolo[4,5-b]pyridin-5-amine] the same measures were 101 to 999 nM and 1 to 100 nM.
As for `Nc1cc(Cc2cnn(C[C@@H]3C[C@H](Oc4ccc(F)cc4)CN3)c2)c2nn[nH]c2n1` [Example 280, 7-[(1-{[(2S,4S)-4-(4-Fluorophenoxy)pyrrolidin-2-yl]methyl}-1H-pyrazol-4-yl)methyl]-3H-[1,2,3]triazolo[4,5-b]pyridin-5-amine], the IC50 at myeloperoxidase (MPO) [3] was in the range of 101 to 999 nM; at myeloperoxidase (MPO) [2] it was 1 to 100 nM.
For `Nc1cc(Cc2cnn(CC3CC(Cc4ccc(F)cc4)CN3)c2)c2nn[nH]c2n1` (stereo not drawn) [Example 281, 7-{[1-({4-[(4-Fluorophenyl)methyl]pyrrolidin-2-yl}methyl)-1H-pyrazol-4-yl]methyl}-3H-[1,2,3]triazolo[4,5-b]pyridin-5-amine], in that order: 1 to 100 nM and 1 to 100 nM.
For `Nc1cc(Cc2cnn(C[C@H]3C[C@H](Oc4ccc(F)cc4)CN3)c2)c2nn[nH]c2n1` [Example 282, 7-[(1-{[(2R,4S)-4-(4-Fluorophenoxy)pyrrolidin-2-yl]methyl}-1H-pyrazol-4-yl)methyl]-3H-[1,2,3]triazolo[4,5-b]pyridin-5-amine], in that order: 1 to 100 nM and 1 to 100 nM.
Consider `Nc1cc(Cc2cn(Cc3ccccc3)nc2C(F)(F)F)c2nn[nH]c2n1` [Example 283, 7-{[1-Benzyl-3-(trifluoromethyl)-1H-pyrazol-4-yl]methyl}-3H-[1,2,3]triazolo[4,5-b]pyridin-5-amine], for which the IC50 lay within 101 to 999 nM against myeloperoxidase (MPO) [3] and 1000 to 10000 nM on myeloperoxidase (MPO) [2].
With `Nc1cc(Cc2cn(Cc3cccc(C4CCNCC4)c3)nc2C(F)(F)F)c2nn[nH]c2n1` [Example 284, 7-((1-(3-(Piperidin-4-yl)benzyl)-3-(trifluoromethyl)-1H-pyrazol-4-yl)methyl)-3H-[1,2,3]triazolo[4,5-b]pyridin-5-amine], the IC50 on myeloperoxidase (MPO) [3] and against myeloperoxidase (MPO) [2] was 101 to 999 nM in each case.
Take `Nc1cc(Cc2cnn(Cc3cccc(C4CCNCC4)c3)c2C(F)(F)F)c2nn[nH]c2n1` [Example 285, 7-[(1-{[3-(Piperidin-4-yl)phenyl]methyl}-5-(trifluoromethyl)-1H-pyrazol-4-yl)methyl]-3H-[1,2,3]triazolo[4,5-b]pyridin-5-amine]: the IC50 on myeloperoxidase (MPO) [3] and on myeloperoxidase (MPO) [2] was 1 to 100 nM each time.
In the case of `Nc1cc(Cc2cn(Cc3cccc(C4CCNCC4)c3)nc2C(F)F)c2nn[nH]c2n1` [Example 286, 7-{[3-(Difluoromethyl)-1-{[3-(piperidin-4-yl)phenyl]methyl}-1H-pyrazol-4-yl]methyl}-3H-[1,2,3]triazolo[4,5-b]pyridin-5-amine], the IC50 against myeloperoxidase (MPO) [3] and at myeloperoxidase (MPO) [2] was 101 to 999 nM in each case.
As to `COc1ccc(CN2CCc3ccc(Cn4cc(Cc5cc(N)nc6[nH]nnc56)cn4)cc3C2=O)cc1` [Example 287, 7-{[4-({5-Amino-3H-[1,2,3]triazolo[4,5-b]pyridin-7-yl}methyl)-1H-pyrazol-1-yl]methyl}-2-[(4-methoxyphenyl)methyl]-1,2,3,4-tetrahydroisoquinolin-1-one], the IC50 lay within 1000 to 10000 nM at myeloperoxidase (MPO) [3] and 1 to 100 nM on myeloperoxidase (MPO) [2].
